Results taken from patent US8334253B2, “Cosmetic and dermatological formulations of MNTF peptides” (Dermacare Neuroscience Institute, priority 2008, dated 2012).
Peptide text beside a SMILES is read from it. * marks the point of attachment. Palmitoyl = CCCCCCCCCCCCCCCC(=O)*

Key:
[1] = system: cellular peroxide levels in human epidermal keratinocytes; assay: Cellular peroxide levels in keratinocytes, DCFH-DA dye and flow cytometry, with and without exogenous H2O2; assay type: cell-based
Description: Hydrogen peroxide can induce damages to skin cells. The dermal protective efficacy of Pal-hexapeptide was assessed by measuring basal peroxide levels in the presence and absence of the compound.
Basal peroxide production, generated by normal cellular metabolism, induce gradual development of low levels of peroxide-specific cellular fluorescence.
Extracellular peroxides (e.g., H2O2 added exogenously) can permeate the cell membrane and cause a rapid and dramatic increase in the peroxide-specific fluorescence of the cell. Cellular peroxides levels can be measured by flow cytometry using the peroxide-specific dye, 2′,7′-dichlorofluorescein diacetate (DCFH-DA). DCFH-DA is initially non-fluorescent and is rapidly concentrated within living cells by an enzyme-dependent process. […] The results of the assay indicates if a test compound functions as an oxidant or an anti-oxidant in a cellular system. If the test article functions as an anti-oxidant, this assay can also be used to determine if the test compound can permeate the cell membrane to quench intracellular peroxide or if it can only affect extracellular peroxide levels (Bass et al., 1983, J. Immunol. 130:1910-1917; Bombick et al., 1992, Toxicol. Meth. 2:255-264).
Human primary keratinocytes, generally on the third passage, were seeded in T75 flasks and cultured until 70-80% confluent. A cell suspension was created and these cells were loaded with the dye DCFH-DA. The pre-incubated cells were exposed to dilutions of the Pal-hexapeptide having the amino acid sequence SEQ ID NO: 2 in two triplicate sets per dilution. One triplicate set was incubated with H2O2 (exogenous source of peroxide), and both sets were stained with Propidium Iodide. Cell viability and peroxide production were determined by fluorescence readings on a FACScan flow cytometer. Peroxide value increases or decreases of 25% or more compared to vehicle control values are considered biologically significant.

human keloid fibroblasts = assay: Human keloid fibroblast proliferation kinetic study; assay type: cell-based; conditions: for inhibition of proliferation of human keloid fibroblasts: cell counts on days 1-4, Trypan blue exclusion
Description: Keloid can be characterized as a hyperproliferation/growth of fibrous scar tissue following trauma to the skin. […] Experimental protocols were based on a published study design for keloid fibroblast growth kinetics and is as described in Polo et al., 1999, Ann. Plastic Surg. 43 (2):185-190.
Briefly, fibroblasts were cultured from skin tissue obtained from fresh surgical specimens. The skin specimen was rinsed in 10 ml of calcium- and magnesium-free Dulbecco's phosphate-buffered saline (Sigma Chemical Co, St. Louis, Mo.) supplemented with gentamycin ([…]) for 30 minutes at room temperature. A second antibiotic rinse using 1% 10,000 U per milliliter penicillin G, 25 micrograms per milliliter amphotericin B, 10,000 micrograms per milliliter streptomycin sulfate solution (Gibco BRL, Gran Island, N.Y.) was performed for 10 minutes. The epidermis was separated from the dermis from each piece. The specimen was cut into four pieces of equal dimensions. Each piece was placed dermis-side down into a 60-mm culture dish containing Dispase solution (Collaborative Biomedical Products, Bedford, Mass.). The explants were incubated with no additional culture media for 15 minutes at 37° C. A total of 10 ml Dulbecco's modified Eagle's medium (DMEM; Gibco BRL) was added slowly to the culture dish, which was then incubated at 37° C. at 5% carbon dioxide. The cells were subcultured until 80% confluence was obtained. Trypsin-ethylenediaminetetraacetic acid (Gibco BRL) was added to […] the cells from the surface of the culture plate, and the cells were washed with DMEM and transferred to a centrifuge tube. […] The cells were counted using a hemocytometer, and their cell number was adjusted to 1×10^6 cells, which were then plated on a 35-mm Petri dish with 2 ml DMED and 1% fetal bovine serum, and incubated at 37° C. in 5% carbon dioxide. […]
Samples from each group were removed on days 1, 2, 3 and 4. The cells from each sample were trypsinized, washed, centrifuged, and resuspended in 1 ml DMEM; and were counted using the Trypan blue dye exclusion method and a hemocytometer.

SMILES: CCCCCCCCCCCCCCCC(=O)N[C@@H](Cc1ccccc1)C(=O)N[C@@H](CO)C(=O)N[C@@H](CCCNC(=N)N)C(=O)N[C@@H](Cc1ccc(O)cc1)C(=O)N[C@@H](C)C(=O)N[C@@H](CCCNC(=N)N)C(=O)O [Pal 6 mer, Pal-FSRYAR] (Palmitoyl-FSRYAR-OH; C-terminus assumed)
- peroxide level, % of the control, endogenous peroxide assay without exogenous H2O2 ([1]; 0.79 mM, endogenous peroxide): 40.21%
- peroxide level, % of the control, assay with exogenous added peroxide ([1]; 0.79 mM, exogenous H2O2 added): 9.88%
- Cell viability, expressed as % of non-viable, treated versus not treated cells ([1]; keratinocytes, Propidium Iodide staining): about the same
- inhibition of human keloid fibroblast cells, dose response study (human keloid fibroblasts; 10^−5 M or 10 micrograms per milliliter): highly effective
- inhibition of proliferation of human keloid fibroblasts (human keloid fibroblasts; listed as MNTF): statistically significant
- inhibition of proliferation of human keloid fibroblasts (human keloid fibroblasts; listed as Pal-Hexapeptide): dose-dependent reduction/inhibition
